Assay results taken from patent publication US9103833B2, “Use of the GTPase Rab27B to diagnose and treat poor prognosis estrogen-receptor-positive breast cancer” (Universiteit Gent, priority 2009, dated 2015).

Columns and labels:
MCF-7 GFP-Rab27B cells = test: type I collagen invasion assay; format: cell-based; details: Homo sapiens, MCF7, 24 hours, MCF-7 GFP-Rab27B cells on type I collagen, P<0.001
Experimental: (§1) For the type I collagen invasion assay, the following precooled components were gently combined and defined as type I collagen solution: four volumes of type I collagen (stock is 3.49 mg/mL), five volumes of calcium- and magnesium-free Hank's balanced salt solution, one volume of MEM (10×), one volume of 0.25 M NaHCO3, 2.65 volumes of culture medium and 0.3 volumes of 1 M NaOH. For each test-condition, 1.25 mL of type I collagen solution was added to one well of 6-well plate, homogeneously spread and gelified on a flat surface in a humidified atmosphere of 10% CO2 in air at 37° C. for at least one hour. […]
(§2) Cell morphology was studied and invasion was scored after 24 hours (De Wever et al., (44)). […] It was calculated as (perimeter)^2÷(4π area), which describes the deviation of an object from a geometric circle. […] The number of invasive and non-invasive cells was counted in ten randomly selected microscopic fields with a 20× objective and 10× eye piece by two blinded observers using an inverted phase contrast microscope (DMI 3000B, Leica, Wetzlar, Germany). The invasion index was calculated as the ratio of the number of cells that invaded the gel divided by the total number of cells counted in each field. […]

MCF-7 cells = test: type I collagen invasion assay with recombinant HSP90 proteins; format: cell-based, human; details: 24 hours
Experimental: as §1, §2

MCF-7 GFP cells = test: cell proliferation assay with recombinant HSP90α; format: cell-based, human; details: 10 μg/mL added to culture medium; P<0.001
Experimental: To examine whether Rab27B affects cell proliferation in a GTP-, geranylgeranyl-, and HSP90α-dependent manner, three sets of experiments were conducted: 1) proliferation rates of MCF-7 cells stably expressing GFP, GFP-Rab27B, GFP-Rab27B Q78L, GFP-Rab27B T23N, and GFP-Rab27B GER were compared; 2) proliferation rates of MCF-7 GFP-Rab27B cells transiently targeted with control or Rab27B siRNAs were studied; and 3) proliferation rates of MCF-7 GFP cells, treated with recombinant HSP90α, and MCF-7 GFP-Rab27B cells, challenged with control IgG or anti-HSP90α neutralizing antibody, were evaluated. To obtain a growth curve under each condition, triplicate wells of seeded cells were each counted five times. Two investigators independently counted the total number of cells in each well every 2 days for a total of 8 days with the use of a manual hemocytometer.

[1] = test system: cyclin A in MCF-7 GFP cells; test: cyclin A expression with recombinant HSP90α, Western blot; format: cell-based, human; details: 10 μg/mL
Experimental: For Western blot analysis MCF-7 cells (1-10×10^6) were harvested in Laemmli lysis buffer (0.125 M Tris-HCl [pH=6.8], 10% glycerol, 2.3% SDS). Cell lysates (25 μg) and CM (20 μL) were suspended in 10 μL reducing sample buffer (1M Tris-HCl [pH=6.8], 30% glycerol, 6% SDS, 3% β-mercaptoethanol, 0.005% bromophenol blue) and boiled for 5 minutes at 95° C. Samples were run on NuPage 4-20% Bis-Tris gradient gels (Invitrogen), transferred to PVDF membranes, blocked in 5% non-fat milk in PBS with 0.5% Tween-20, and immunostained. Scanning densitometry was carried out with the Quantity One Program (Bio-Rad).

## COC1=C2C[C@@H](C)C[C@H](OC)[C@H](O)[C@@H](C)/C=C(\C)[C@H](OC(N)=O)[C@@H](OC)/C=C\C=C(/C)C(=O)NC(=CC1=O)C2=O [geldanamycin]
MCF-7 GFP-Rab27B cells
  inhibition at 1 µM: 85 to 100%

## recombinant HSP90α: HSP90α recombinant protein obtained from Stressgen
MCF-7 cells; 1-10 μg/mL recombinant protein, P=0.04 at 5 μg/mL, P=0.003 at 10 μg/mL
  type I collagen invasion: dose-dependent increase
MCF-7 GFP cells
  proliferation of MCF-7 cells: increased proliferation
[1]
  cyclin A expression: increased cyclin A expression

## recombinant HSP90β: HSP90β recombinant protein obtained from Stressgen
MCF-7 cells; 10 μg/mL recombinant protein
  type I collagen invasion: no effect
